Where two headings read alike, the source gives them in different places.
Legend:
[1] = system: H929 human cancer cell lines; test: Cellular viability / proliferation (Cell TiterGlo, 72 h); assay type: cell-based
Outline: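 Plating is at 1,000 cells/well in 10% FBS medium; after 24 h, compound is added as a 2-fold series starting at 50 μM with under 1% DMSO.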

Mcl-1 = Mcl-1 (Homo sapiens (Human), UniProt Q07820); test: TR-FRET binding assay, FITC-Bak peptide and MBP-tagged Mcl-1; conditions: read-out: Ki for Inhibition of Mcl-1 by TR-FRET assay
Protocol: Compounds are diluted in DMSO in a 16-point, semilog serial dilution scheme. […] The plate was mixed and incubated for 3 hours at room temperature. […] TR-FRET signal is plotted and IC50 and Ki values are calculated in the same manner as the fluorescence polarization anisotropy based competition assays.

[2] = Homo sapiens, NCI-H929, 72 h, read-out: GI50 on cellular proliferation of H929 human cancer cell lines, H929 cells, 72 h, Cell TiterGlo, 10% FBS
[3] = read-out: GI50 on cellular proliferation of H929 human cancer cell lines, H929 cells, 72 h, Cell TiterGlo, 10% FBS

Sequence of Mcl-1 (Q07820 172-327): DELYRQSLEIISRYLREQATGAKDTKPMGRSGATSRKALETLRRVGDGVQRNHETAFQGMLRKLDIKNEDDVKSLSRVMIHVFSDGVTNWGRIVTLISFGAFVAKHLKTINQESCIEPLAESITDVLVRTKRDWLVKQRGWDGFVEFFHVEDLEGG

Structure (SMILES)	GI50 [1, 2]	Ki (Mcl-1)	GI50 [1, 3]	GI50 ([1]; H929 cells, 72 h, Cell TiterGlo, 10% FBS, read-out: GI50 on cellular proliferation of H929 human cancer cell lines)
Cc1cc(OCCCc2c3n(c4c(-c5c(C)nn(C)c5C)c(Cl)ccc24)[C@H](C)CN(c2cn(CCCl)c4ccc(-c5ncn(C)n5)cc24)C3=O)cc(C)c1Cl [Example 529, (R)-7-Chloro-10-(3-(4-chloro-3,5-dimethylphenoxy)propyl)-2-(1-(2-chloroethyl)-5-(1-methyl-1H-1,2,4-triazol-3-yl)-1H-indol-3-yl)-4-methyl-6-(1,3,5-trimethyl-1H-pyrazol-4-yl)-3,4-dihydropyrazino[1,2-a]indol-1(2H)-one]	520 nM	< 0.2 nM	–	–
Cc1ccc(Cn2cc(C(=O)O)c3cccc(N4C[C@@H](C)n5c(c(CCCOc6cc(C)c(Cl)c(C)c6)c6ccc(Cl)c(-c7c(C)nn(C)c7C)c65)C4=O)c32)nc1 (single isomer, unassigned) [Example 507]	–	0.72 nM	1400 nM	–
Cc1cc(OCCCc2c3n(c4c(-c5c(C)nn(C)c5C)c(Cl)ccc24)[C@H](C)CN(c2cc(CN4CCN(C)CC4)cc4c(C(=O)O)cn(C)c24)C3=O)cc(C)c1Cl [Example 490, (R)-7-(7-Chloro-10-(3-(4-chloro-3,5-dimethylphenoxy)propyl)-4-methyl-1-oxo-6-(1,3,5-trimethyl-1H-pyrazol-4-yl)-3,4-dihydropyrazino[1,2-a]indol-2(1H)-yl)-1-methyl-5-((4-methylpiperazin-1-yl)methyl)-1H-indole-3-carboxylic acid]	810 nM	0.29 nM	–	–
Cc1ccnc(-n2cnc(-c3ccc4c(c3)c(N3C[C@@H](C)n5c(c(CCCOc6cc(C)c(Cl)c(C)c6)c6ccc(Cl)c(-c7c(C)nn(C)c7C)c65)C3=O)cn4C)n2)n1 [Example 670, (R)-7-Chloro-10-(3-(4-chloro-3,5-dimethylphenoxy)propyl)-4-methyl-2-(1-methyl-5-(1-(4-methylpyrimidin-2-yl)-1H-1,2,4-triazol-3-yl)-1H-indol-3-yl)-6-(1,3,5-trimethyl-1H-pyrazol-4-yl)-3,4-dihydropyrazino[1,2-a]indol-1(2H)-one]	< 200 nM	< 0.2 nM	–	–
COCCn1cc(N2C[C@@H](C)n3c(c(CCCOc4cc(C)c(Cl)c(C)c4)c4ccc(Cl)c(-c5c(C)nn(C)c5C)c43)C2=O)c2cc(-c3ncn(CC4CCOCC4)n3)ccc21 [Example 624, (R)-7-Chloro-10-(3-(4-chloro-3,5-dimethylphenoxy)propyl)-2-(1-(2-methoxyethyl)-5-(1-((tetrahydro-2H-pyran-4-yl)methyl)-1H-1,2,4-triazol-3-yl)-1H-indol-3-yl)-4-methyl-6-(1,3,5-trimethyl-1H-pyrazol-4-yl)-3,4-dihydropyrazino[1,2-a]indol-1(2H)-one]	430 nM	9.6 nM	–	–
Cc1cc(OCCCc2c3n(c4c(-c5c(C)nn(C)c5C)c(Cl)ccc24)[C@H](C)CN(c2cn(C)c4ccc(-c5ncn(-c6ccccn6)n5)cc24)C3=O)cc(C)c1Cl [Example 647, (R)-7-Chloro-10-(3-(4-chloro-3,5-dimethylphenoxy)propyl)-4-methyl-2-(1-methyl-5-(1-(pyridin-2-yl)-1H-1,2,4-triazol-3-yl)-1H-indol-3-yl)-6-(1,3,5-trimethyl-1H-pyrazol-4-yl)-3,4-dihydropyrazino[1,2-a]indol-1(2H)-one]	1100 nM	0.32 nM	–	–
CCOCCn1c(C(=O)O)cc2cc(C)cc(N3C[C@@H](C)n4c(c(CCCOc5cc(C)c(Cl)c(C)c5)c5ccc(Cl)c(-c6c(C)nn(C)c6C)c54)C3=O)c21 [Example 579, (R)-7-(7-chloro-10-(3-(4-chloro-3,5-dimethylphenoxy)propyl)-4-methyl-1-oxo-6-(1,3,5-trimethyl-1H-pyrazol-4-yl)-3,4-dihydropyrazino[1,2-a]indol-2(1H)-yl)-1-(2-ethoxyethyl)-5-methyl-1H-indole-2-carboxylic acid]	240 nM	< 0.2 nM	–	–
COCCn1cnc(-c2ccc3c(c2)c(N2C[C@@H](C)n4c(c(CCCOc5cc(C)c(Cl)c(C)c5)c5ccc(Cl)c(-c6c(C)nn(C)c6C)c54)C2=O)cn3C)n1 [Example 530, (R)-7-Chloro-10-(3-(4-chloro-3,5-dimethylphenoxy)propyl)-2-(S-(1-(2-methoxyethyl)-1H-1,2,4-triazol-3-yl)-1-methyl-1H-indol-3-yl)-4-methyl-6-(1,3,5-trimethyl-1H-pyrazol-4-yl)-3,4-dihydropyrazino[1,2-a]indol-1(2H)-one]	–	< 0.2 nM	–	230 nM
Cc1cc(OCCCc2c3n(c4c(-c5c(C)nn(C)c5C)c(Cl)ccc24)[C@H](C)CN(c2cn(CCN4CCOCC4)c4ccc(-c5ncn(-c6ncccn6)n5)cc24)C3=O)cc(C)c1Cl [Example 720, (R)-7-Chloro-10-(3-(4-chloro-3,5-dimethylphenoxy)propyl)-4-methyl-2-(1-(2-morpholinoethyl)-5-(1-(pyrimidin-2-yl)-1H-1,2,4-triazol-3-yl)-1H-indol-3-yl)-6-(1,3,5-trimethyl-1H-pyrazol-4-yl)-3,4-dihydropyrazino[1,2-a]indol-1(2H)-one]	220 nM	0.51 nM	–	–
Cc1cccc(Cn2cc(C(=O)O)c3cccc(N4C[C@@H](C)n5c(c(CCCOc6cc(C)c(Cl)c(C)c6)c6ccc(Cl)c(-c7c(C)nn(C)c7C)c65)C4=O)c32)n1 (single isomer, unassigned) [Example 494]	–	0.3 nM	450 nM	–
Cc1cc(OCCCc2c3n(c4c(-c5c(C)nn(C)c5C)c(Cl)ccc24)[C@H](C)CN(c2cc(N(C)C)cc4cc(C(=O)O)n(C)c24)C3=O)cc(C)c1Cl [Example 683, (R)-7-(7-chloro-10-(3-(4-chloro-3,5-dimethylphenoxy)propyl)-4-methyl-1-oxo-6-(1,3,5-trimethyl-1H-pyrazol-4-yl)-3,4-dihydropyrazino[1,2-a]indol-2(1H)-yl)-5-(dimethylamino)-1-methyl-1H-indole-2-carboxylic acid]	250 nM	0.21 nM	–	–
Cc1cc(OCCCc2c3n(c4c(-c5c(C)nn(C)c5C)c(Cl)ccc24)[C@H](C)CN(c2cn(C)c4ccc(-n5cncn5)cc24)C3=O)cc(C)c1Cl [Example 681, (R)-7-Chloro-10-(3-(4-chloro-3,5-dimethylphenoxy)propyl)-4-methyl-2-(1-methyl-5-(1H-1,2,4-triazol-1-yl)-1H-indol-3-yl)-6-(1,3,5-trimethyl-1H-pyrazol-4-yl)-3,4-dihydropyrazino[1,2-a]indol-1(2H)-one]	940 nM	5.5 nM	–	–
Cc1cc(OCCCc2c3n(c4c(-c5c(C)nn(C)c5C)c(Cl)ccc24)[C@H](C)CN(c2cc(COCC4COC4)cc4cc(C(=O)O)n(C)c24)C3=O)cc(C)c1Cl [Example 692, (R)-7-(7-chloro-10-(3-(4-chloro-3,5-dimethylphenoxy)propyl)-4-methyl-1-oxo-6-(1,3,5-trimethyl-1H-pyrazol-4-yl)-3,4-dihydropyrazino[1,2-a]indol-2(1H)-yl)-1-methyl-5-((oxetan-3-ylmethoxy)methyl)-1H-indole-2-carboxylic acid]	390 nM	< 0.2 nM	–	–
COCCn1cc(N2C[C@@H](C)n3c(c(CCCOc4cc(C)c(Cl)c(C)c4)c4ccc(Cl)c(-c5c(C)nn(C)c5C)c43)C2=O)c2cc(-c3ncn(C)n3)ccc21 [Example 524, (R)-7-Chloro-10-(3-(4-chloro-3,5-dimethylphenoxy)propyl)-2-(1-(2-methoxyethyl)-5-(1-methyl-1H-1,2,4-triazol-3-yl)-1H-indol-3-yl)-4-methyl-6-(1,3,5-trimethyl-1H-pyrazol-4-yl)-3,4-dihydropyrazino[1,2-a]indol-1(2H)-one]	220 nM	0.28 nM	–	–
